In experiment [1] the target is human orexin-2 receptor (hOX2R) (Homo sapiens (Human), UniProt O43614). Briefly: FLIPR Ca2+ Flux Assay, CHO cells expressing human orexin-2 receptor. Conditions: agonist Ala-6,12 human orexin-A 70 pM. The class given is cell-based. Here is the method:
Briefly, for intracellular calcium measurements, Chinese hamster ovary (CHO) cells expressing the orexin-1 receptor (e.g., rat or human) or the orexin-2 receptor (e.g., rat or human), are grown in Iscove's modified DMEM containing 2 mM L-glutamine, […], 1% hypoxanthine-thymidine supplement, 100 U/ml penicillin, 100 μg/ml streptomycin and 10% heat-inactivated fetal calf serum (FCS). The cells are seeded at approximately 20,000 cells per well into 384-well clear bottom sterile plates coated with poly-D-lysine. The seeded plates are incubated overnight at 37° C. and 5% CO2. Human ala-6,12 orexin-A can be used as the agonist and prepared as a 1 mM stock solution in 1% bovine serum albumin (BSA) and diluted in assay buffer (HBSS containing 20 mM HEPES, 0.1% BSA and 2.5 mM probenecid, pH7.4) for use in the assay at a final concentration of 70 pM. Test compounds are prepared as 10 mM stock solution in DMSO, then diluted in 384-well plates, first in DMSO, then in assay buffer. On the day of the assay, cells are washed 3 times with 100 μl assay buffer and then incubated for 60 minutes (37° C., 5% CO2) in 60 μl assay buffer containing 1 μM Fluo-4 AM ester, 0.02% pluronic acid, and 1% BSA. The dye loading solution is then aspirated and cells are washed 3 times with 100 μl assay buffer. 30 μl of that same buffer is left in each well. Within the Fluorescent Imaging Plate Reader (FLIPR, Molecular Devices), test compounds are added to the plate in a volume of 25 μl, incubated for 5 minutes, and then 25 μl of agonist is added. Fluorescence is measured for each well at 1 second intervals for 5 minutes, and the height of each fluorescence peak is compared to the height of the fluorescence peak induced by 70 pM of agonist ala-6,12 orexin-A with buffer in place of test compound. IC50 value for the test compound is determined to be the concentration of compound needed to inhibit 50% of the agonist response. Alternatively, compound potency can be assessed using a radioligand binding assay (described in Bergman et. al., Bioorg. Med. Chem. Lett. 2008, 18:1425-1430) in which the inhibition constant (Ki) is determined in membranes prepared from CHO cells expressing either the OX1 or OX2 receptor. The intrinsic orexin receptor antagonist activity of a compound of the present invention may be determined by these assays. […]
In general terms: Calcium assays in cells follow changes in intracellular calcium, usually with a dye or a luminescent sensor.

The target of experiment [2] is human orexin-1 receptor (hOX1R) (Homo sapiens (Human), UniProt O43613). Briefly: FLIPR Ca2+ Flux Assay, CHO cells expressing human orexin-1 receptor. Type of experiment: cell-based. Conditions: agonist Ala-6,12 human orexin-A 70 pM. From the text: The utility of the compounds in accordance with the present invention as orexin receptor OX1R and/or OX2R antagonists may be readily determined without undue experimentation by methodology well known in the art, including the “FLIPR Ca^2+ Flux Assay” (Okumura et al., Biochem. Biophys. Res. Comm. 2001, 280:976-981). Briefly, for intracellular calcium measurements, Chinese hamster ovary (CHO) cells expressing the orexin-1 receptor (e.g., rat or human) or the orexin-2 receptor (e.g., rat or human), are grown in Iscove's modified DMEM containing 2 mM L-glutamine, […], 1% hypoxanthine-thymidine supplement, 100 U/ml penicillin, 100 μg/ml streptomycin and 10% heat-inactivated fetal calf serum (FCS). The cells are seeded at approximately 20,000 cells per well into 384-well clear bottom sterile plates coated with poly-D-lysine. The seeded plates are incubated overnight at 37° C. and 5% CO2. Human ala-6,12 orexin-A can be used as the agonist and prepared as a 1 mM stock solution in 1% bovine serum albumin (BSA) and diluted in assay buffer (HBSS containing 20 mM HEPES, 0.1% BSA and 2.5 mM probenecid, pH7.4) for use in the assay at a final concentration of 70 pM. Test compounds are prepared as 10 mM stock solution in DMSO, then diluted in 384-well plates, first in DMSO, then in assay buffer. On the day of the assay, cells are washed 3 times with 100 μl assay buffer and then incubated for 60 minutes (37° C., 5% CO2) in 60 μl assay buffer containing 1 μM Fluo-4 AM ester, 0.02% pluronic acid, and 1% BSA. The dye loading solution is then aspirated and cells are washed 3 times with 100 μl assay buffer. 30 μl of that same buffer is left in each well. Within the Fluorescent Imaging Plate Reader (FLIPR, Molecular Devices), test compounds are added to the plate in a volume of 25 μl, incubated for 5 minutes, and then 25 μl of agonist is added. Fluorescence is measured for each well at 1 second intervals for 5 minutes, and the height of each fluorescence peak is compared to the height of the fluorescence peak induced by 70 pM of agonist ala-6,12 orexin-A with buffer in place of test compound. IC50 value for the test compound is determined to be the concentration of compound needed to inhibit 50% of the agonist response. Alternatively, compound potency can be assessed using a radioligand binding assay (described in Bergman et. al., Bioorg. Med. Chem. Lett. 2008, 18:1425-1430) in which the inhibition constant (Ki) is determined in membranes prepared from CHO cells expressing either the OX1 or OX2 receptor. The intrinsic orexin receptor antagonist activity of a compound of the present invention may be determined by these assays.

A value given as a limit tells only on which side of the number the result lay.

human orexin-1 receptor (hOX1R), sequence (O43613 whole entry): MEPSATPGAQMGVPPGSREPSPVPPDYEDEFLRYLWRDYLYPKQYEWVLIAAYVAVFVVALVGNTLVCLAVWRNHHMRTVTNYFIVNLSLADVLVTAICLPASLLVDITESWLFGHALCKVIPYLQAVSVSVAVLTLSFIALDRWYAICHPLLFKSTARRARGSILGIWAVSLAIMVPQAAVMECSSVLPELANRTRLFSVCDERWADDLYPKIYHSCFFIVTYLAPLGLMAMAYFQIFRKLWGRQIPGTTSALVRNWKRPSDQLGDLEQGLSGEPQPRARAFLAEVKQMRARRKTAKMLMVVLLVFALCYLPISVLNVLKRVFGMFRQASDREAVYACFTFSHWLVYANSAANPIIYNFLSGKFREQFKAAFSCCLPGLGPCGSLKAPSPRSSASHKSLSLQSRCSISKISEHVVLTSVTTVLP
human orexin-2 receptor (hOX2R), sequence (O43614 whole entry): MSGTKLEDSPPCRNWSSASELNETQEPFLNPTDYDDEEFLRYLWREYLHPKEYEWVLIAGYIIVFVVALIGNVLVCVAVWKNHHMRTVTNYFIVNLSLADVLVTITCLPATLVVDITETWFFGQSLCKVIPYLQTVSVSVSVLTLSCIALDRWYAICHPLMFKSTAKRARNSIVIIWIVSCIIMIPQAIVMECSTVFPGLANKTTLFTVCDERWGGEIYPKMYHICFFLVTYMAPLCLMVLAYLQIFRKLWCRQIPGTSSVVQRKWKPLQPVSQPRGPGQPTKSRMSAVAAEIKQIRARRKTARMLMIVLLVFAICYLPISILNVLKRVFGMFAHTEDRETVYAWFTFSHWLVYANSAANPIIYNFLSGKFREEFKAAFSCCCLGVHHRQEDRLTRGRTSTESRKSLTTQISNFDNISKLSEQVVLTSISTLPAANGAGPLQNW

Regarding `Cc1sc([C@@H]2CC[C@@H](C)N(C(=O)c3ccc(F)cc3-n3nccn3)C2)nc1C(C)(C)O` [Example 22, (4-fluoro-2-(2H-1,2,3-triazol-2-yl)phenyl)((2R,5R)-5-(4-(2-hydroxypropan-2-yl)-5-methylthiazol-2-yl)-2-methylpiperidin-1-yl)methanone], the results for the IC50 in experiment [1] and in experiment [2] were 20 nM and 930 nM, respectively.

As to `C[C@@H]1CC[C@@H](c2nc(C(C)(C)O)cs2)CN1C(=O)c1ccccc1-n1nccn1` [Example 5], the values for the IC50 in experiment [1] and in experiment [2] were 17 nM and 2250 nM, respectively.

As for `C[C@@H]1CC[C@@H](c2nc(C(C)(C)O)cs2)CN1C(=O)c1ccccc1-c1ncccn1` [Example 17, ((2R,5R)-5-(4-(2-Hydroxypropan-2-yl)thiazol-2-yl)-2-methylpiperidin-1-yl)(2-(pyrimidin-2-yl)phenyl)methanone], the IC50 (in general, the point on the concentration scale where inhibition reaches its midpoint) in experiment [1] came out at 29 nM; in experiment [2] it was 5470 nM.

`C[C@@H]1CC[C@@H](c2nc([C@@H](O)C(F)(F)F)cs2)CN1C(=O)c1ccccc1-n1nccn1` [Example 7, (2-(2H-1,2,3-triazol-2-yl)phenyl)((2R,5R)-2-methyl-5-(4-((R)-2,2,2-trifluoro-1-hydroxyethyl)thiazol-2-yl)piperidin-1-yl)methanone]: the IC50 in experiment [1] was 15 nM; in experiment [2], 360 nM.

For the compound `Cc1sc([C@@H]2CC[C@@H](C)N(C(=O)c3ccccc3C3(C#N)CC3)C2)nc1C(C)(C)O` [Example 25, 1-(2-((2R,5R)-5-(4-(2-Hydroxypropan-2-yl)-5-methylthiazol-2-yl)-2-methylpiperidine-1-carbonyl)phenyl)cyclopropanecarbonitrile], the values for the IC50 in experiment [1] and in experiment [2] were 12 nM and 240 nM, respectively.

Consider `C[C@@H]1CC[C@@H](c2cnc(C(C)(C)O)s2)CN1C(=O)c1ccccc1-n1nccn1` [Example 4, (2-(2H-1,2,3-triazol-2-yl)phenyl)((2R,5R)-5-(2-(2-hydroxypropan-2-yl)thiazol-5-yl)-2-methylpiperidin-1-yl)methanone], for which the IC50 in experiment [1] was 50 nM; in experiment [2] it was above 10000 nM.

With `C[C@@H]1CC[C@@H](c2csc(C(C)(C)O)n2)CN1C(=O)c1ccccc1-n1nccn1` [Example 36, (2-(2H-1,2,3-triazol-2-yl)phenyl)((2R,5R)-5-(2-(2-hydroxypropan-2-yl)thiazol-4-yl)-2-methylpiperidin-1-yl)methanone], the IC50 in experiment [1] turned out to be 20 nM; in experiment [2], 2300 nM.

`C[C@@H]1CC[C@@H](c2nc(C(C)(C)O)cs2)CN1C(=O)c1ccccc1C1(C#N)CC1` [Example 11, 1-(2-((2R,5R)-5-(4-(2-Hydroxypropan-2-yl)thiazol-2-yl)-2-methylpiperidine-1-carbonyl)phenyl)cyclopropanecarbonitrile]: the IC50 in experiment [1] stood at 15 nM; in experiment [2], 950 nM.

With `C[C@@H]1CC[C@@H](c2nc(C(C)(C)O)cs2)CN1C(=O)c1cscc1-n1nccn1` [Example 15, (4-(2H-1,2,3-Triazol-2-yl)thiophen-3-yl)((2R,5R)-5-(4-(2-hydroxypropan-2-yl)thiazol-2-yl)-2-methylpiperidin-1-yl)methanone], the results for the IC50 in experiment [1] and in experiment [2] were 16 nM and above 10000 nM, respectively.

On to `C[C@@H]1CC[C@H](c2ncc(C(C)(C)O)s2)CN1C(=O)c1ccccc1-n1nccn1` [Example 3, (2-(2H-1,2,3-Triazol-2-yl)phenyl)((2R,5S)-5-(5-(2-hydroxypropan-2-yl)thiazol-2-yl)-2-methylpiperidin-1-yl)methanone], for which the IC50 in experiment [1] is 2650 nM; in experiment [2] it was above 10000 nM.

In the case of `C[C@@H]1CC[C@@H](c2nc(C(C)(C)O)cs2)CN1C(=O)c1ccsc1-c1ncccn1` [Example 18, ((2R,5R)-5-(4-(2-Hydroxypropan-2-yl)thiazol-2-yl)-2-methylpiperidin-1-yl)(2-(pyrimidin-2-yl)thiophen-3-yl)methanone], the IC50 was 114 nM in experiment [1] and above 10000 nM in experiment [2].

Take `C[C@@H]1CC[C@@H](c2nc([C@H](O)C(F)F)cs2)CN1C(=O)c1ccccc1-n1nccn1` [Example 9]: the IC50 in experiment [1] turned out to be 9.4 nM; in experiment [2], 520 nM.

For `C[C@@H]1CC[C@@H](c2nc(C(C)(C)O)cs2)CN1C(=O)c1ccsc1-n1nccn1` [Example 10, (2-(2H-1,2,3-triazol-2-yl)thiophen-3-yl)((2R,5R)-5-(4-(2-hydroxypropan-2-yl)thiazol-2-yl)-2-methylpiperidin-1-yl)methanone], the half-inhibitory concentration (IC50) in experiment [1] amounted to 19 nM; in experiment [2] it was 7400 nM.

Consider `COC(=O)c1ccccc1C(=O)N1C[C@H](c2nc(C(C)(C)O)cs2)CC[C@H]1C` [Example 12, Methyl 2-((2R,5R)-5-(4-(2-hydroxypropan-2-yl)thiazol-2-yl)-2-methylpiperidine-1-carbonyl)benzoate], for which the results for the IC50 in experiment [1] and in experiment [2] were 44 nM and above 10000 nM, respectively.

For `Cc1sc([C@@H]2CC[C@@H](C)N(C(=O)c3ccccc3-n3ncnn3)C2)nc1C(C)(C)O` [Example 24, (2-(2H-Tetrazol-2-yl)phenyl)((2R,5R)-5-(4-(2-hydroxypropan-2-yl)-5-methylthiazol-2-yl)-2-methylpiperidin-1-yl)methanone], the IC50 in experiment [1] turned out to be 19 nM; in experiment [2] it was 2650 nM.

For `Cc1sc([C@@H]2CC[C@@H](C)N(C(=O)c3cscc3-n3nccn3)C2)nc1C(C)(C)O` [Example 21, (4-(2H-1,2,3-triazol-2-yl)thiophen-3-yl)((2R,5R)-5-(4-(2-hydroxypropan-2-yl)-5-methylthiazol-2-yl)-2-methylpiperidin-1-yl)methanone], the IC50 in experiment [1] amounted to 30 nM; in experiment [2] it was 2800 nM.

On to `Cc1sc([C@@H]2CC[C@@H](C)N(C(=O)c3ccccc3CS(C)(=O)=O)C2)nc1C(C)(C)O` [Example 26, ((2R,5R)-5-(4-(2-Hydroxypropan-2-yl)-5-methylthiazol-2-yl)-2-methylpiperidin-1-yl)(2-((methylsulfonyl)methyl)phenyl)methanone], for which the IC50 in experiment [1] is 32 nM; in experiment [2] it was above 10000 nM.

For the compound `C[C@@H]1CC[C@@H](c2ncc(C(C)(C)O)s2)CN1C(=O)c1ccccc1-n1nccn1` [Example 2, (2-(2H-1,2,3-Triazol-2-yl)phenyl)((2R,5R)-5-(5-(2-hydroxypropan-2-yl)thiazol-2-yl)-2-methylpiperidin-1-yl)methanone], the IC50 in experiment [1] is 67 nM; in experiment [2], above 10000 nM.

With `C[C@@H]1CC[C@@H](c2nc([C@H](O)C(F)(F)F)cs2)CN1C(=O)c1ccccc1-n1nccn1` [Example 6, (2-(2H-1,2,3-triazol-2-yl)phenyl)((2R,5R)-2-methyl-5-(4-((S)-2,2,2-trifluoro-1-hydroxyethyl)thiazol-2-yl)piperidin-1-yl)methanone], the figures for the IC50 in experiment [1] and in experiment [2] were 165 nM and 10000 nM, respectively.

(Values after patent US9695163B2, “Thiazole orexin receptor antagonists” (MERCK SHARP & DOHME CORP., priority 2013, dated 2017).)
